We go through 99 molecules from ChEMBL document CHEMBL3507680, “University of Dundee, Gates Library screen for HepG2 cell viability”.

The series can be described thus: Human HepG2 cell viability assay in 384 well format. It is filed as toxicity, cell-based. On the set-up: dose 125 nL, time 70.5 hour; cytotoxicity at 70.5 h: concentration not given beside the values. The note with it: HepG2 cells, read-out: Inhibition.
On to `CN1CC2(CCN(C(=O)c3[nH]cnc3-c3ccccc3)C2)OC1=O` (centres undefined), for which the cytotoxicity at 70.5 h was -3.76%.
In the case of `O=C(Cc1cc(F)cc(Cl)c1)N[C@@H]1CCNC[C@H]1O`, the cytotoxicity at 70.5 h is -5.4%.
As for `CCNc1ncc(C(=O)N(C)Cc2nc3cc(Cl)ccc3[nH]2)cn1`, the figure is -13.7%.
The figure for `CN(CC1(CO)CC1)C(=O)C1CCC(=O)N(Cc2ccc(Cl)cc2)C1` (centres undefined) is -1.51%; for `OC1(CNCc2noc(Cc3ccccc3)n2)CCCNC1` (centres undefined) it is 0.455%; for `CCN(Cc1nccn1C)C(=O)c1ccc(NCc2cnn(C)c2)nc1` it is -3.96%.
On to `COc1ccc(-n2ccnc2-c2cnc(N(C)C)nc2)cc1OC`, for which the cytotoxicity at 70.5 h is -6.47%.
As for `O[C@@H]1CN(CC2=Cc3cc(Cl)ccc3OC2)CC[C@H]1N1CCCCCC1`, the figure is -11%; as for `O=C(c1ccc(S(=O)(=O)NCCc2ccncc2)cc1)N1CCCC1`, -19.6%; as for `Cc1n[nH]c(C)c1CCc1nc(C2CC2)n[nH]1`, -6.37%.
On to `CCNC(=O)[C@@H]1C[C@H](N)CN1c1cc(C(F)(F)F)nc(N2CCCC2)n1`, for which the cytotoxicity at 70.5 h stood at 3.41%.
As to `COc1ccc2c(c1)OCC(Cc1ccc(N)cn1)C2` (centres undefined), the cytotoxicity at 70.5 h is 2.07%.
`COc1nc2c(cc1C(=O)NCCCc1csc(N)n1)CCC2`: the cytotoxicity at 70.5 h is -6.85%.
On to `CC(=O)N[C@@H]1CN(Cc2ccccc2-n2cccn2)C[C@H]1C(C)C`, for which the cytotoxicity at 70.5 h is -4.08%.
As for `Cc1cc(C(=O)N2C[C@H]3CC[C@@H]2CN(C(=O)c2ccncc2)C3)cs1`, the cytotoxicity at 70.5 h was -1.99%.
As for `Cc1nccn1CCN(C)C(=O)c1cn(CC2CCCCC2)nn1`, the cytotoxicity at 70.5 h is -25.4%.
The figure for `CC(C)N1CCCC(C(=O)N2CCc3c(nc(CC4CC4)[nH]c3=O)C2)C1` (centres undefined) is 3.48%.
The figure for `CN(C)CCN1CC(C(=O)N2CCC(c3nccn3C)CC2)CC1=O` (centres undefined) is 6.94%; for `c1ccc2c(c1)CC(Cc1cc(N3CCCC3)cnn1)CCO2` (centres undefined) it is 2.31%.
For the molecule `Cc1ccc(C(=O)N2CC[C@H](N3CCOCC3)[C@H](CCCO)C2)cc1O`, the cytotoxicity at 70.5 h was -8.22%.
Turning to `Cc1n[nH]c(C)c1Sc1ccccc1NC(=O)CN1CCCC1`, the cytotoxicity at 70.5 h was -3.41%.
As for `CC1(c2ccccc2)CCC(=O)N(CCCN2CCOCC2)C1` (centres undefined), the figure is -8.26%.
As to `CN1CC2(CCN(Cc3ncc[nH]3)CC2)CC1=O`, the cytotoxicity at 70.5 h is -4.6%.
Turning to `NC(=O)CCn1cc(CNCc2csc(N)n2)c2ccccc21`, the cytotoxicity at 70.5 h was -2.33%.
The figure for `COCc1cn(C2CCN(Cc3ccc(Cl)s3)CC2)nn1` is -12.4%; for `CC(C)c1nc(C(=O)N2C[C@H](C(C)C)[C@@H](N)C2)cs1` it is -0.955%; for `CC(C)(C)n1ccc(C(=O)N2CCCC(c3ccc(C(=O)O)cc3)C2)c1` (centres undefined) it is -13.3%.
As for `CC(=O)CCCC(=O)N(Cc1ccsc1)CC(C)C`, the figure is -5.67%.
With `O=C(NCCCc1ccccn1)c1cn(CCN2CCNCC2)nn1`, the cytotoxicity at 70.5 h was -9.59%.
As to `CCN(C)S(=O)(=O)N[C@H]1CN(c2ccc(F)cn2)C[C@@H]1C(C)C`, the cytotoxicity at 70.5 h is -1.25%.
Consider `Cc1cc(C(=O)N2CCc3[nH]cnc3C2C(=O)O)c(-c2ccccc2)o1` (centres undefined), for which the cytotoxicity at 70.5 h was -3.87%.
The figure for `Cc1ccccc1SCC(=O)N[C@H]1CC[C@H](n2cnnc2)CC1` is -5.74%; for `CCN1CC2(CCC1=O)CCN(CCc1nccn1C)CC2` it is -6.75%.
The figure for `CC[C@H](C)[C@@H](CO)NC(C)Cc1ccc(Cl)cc1` (some centres undefined) is -2.7%; for `c1cc(CN2CCC(n3cc(CN4CCCC4)nn3)CC2)cs1` it is -5.26%.
The figure for `Cc1cc(C)n2ncc(CN3CCC(n4cc(CCO)nn4)CC3)c2n1` is -1.82%; for `CCCN(Cc1nccn1C)C(=O)c1cc(C(C)C)on1` it is 3.45%.
In the case of `CCc1cnc(NCCS(=O)(=O)N(C)C)nc1`, the cytotoxicity at 70.5 h was 20.6%.
With `Cc1noc(CN2C[C@H]3CC[C@@H]2CN(C2Cc4ccccc4C2)C3)n1`, the cytotoxicity at 70.5 h amounted to 4.75%.
For the molecule `CC(C)CN1CCc2[nH]cnc2C12CCN(C(=O)c1ccccn1)CC2`, the cytotoxicity at 70.5 h is -3.63%.
Take `COc1ccccc1OC1CCN(C(=O)c2cnc(C)s2)CC1`: the cytotoxicity at 70.5 h is -4.88%.
As to `CC(C)N(Cc1nccn1C)C(=O)c1cnc(O)cn1`, the cytotoxicity at 70.5 h was -3.41%.
As for `c1ccc(C2CCCN2C2CCSCC2)nc1` (centres undefined), the cytotoxicity at 70.5 h is 0.0849%.
`O=c1[nH]cnc2c1CCN(S(=O)(=O)c1ccc(OC(F)(F)F)cc1)C2`: the cytotoxicity at 70.5 h is -9.4%.
Turning to `CC(C)CN1CCCn2nc(CNC(=O)OCc3ccccc3)cc2C1`, the cytotoxicity at 70.5 h is -5.5%.
For `COc1ccc(N2CCN(C(=O)[C@H]3[C@@H]4CNC[C@@H]43)CC2(C)C)cc1`, the cytotoxicity at 70.5 h is 18.4%.
Take `CC(C)(C)c1ccc(C(=O)C2CCCN(C(=O)CNS(C)(=O)=O)C2)cc1` (centres undefined): the cytotoxicity at 70.5 h amounted to 23.1%.
On to `CCc1cc(N(C)Cc2ncc[nH]2)nc(N2CCOCC2)n1`, for which the cytotoxicity at 70.5 h is -15.9%.
As for `COc1ccccc1C1CCN(c2ccc3cc[nH]c3n2)CC1`, the figure is -7.33%; as for `Cc1ccccc1C(C(=O)O)N(C)CC1CCOCC1` (centres undefined), -2.17%; as for `Cc1csc2c(N3CCC(NCCc4ccnn4C)CC3)ncnc12`, 6.94%.
The figure for `O=C(c1ccc2cccnc2n1)N(Cc1ccsc1)CC1CCCO1` (centres undefined) is -12.4%; for `CCN1CCN(C(=O)c2cnc(Cc3c(Cl)cccc3Cl)nc2O)CC1` it is -4.18%.
For the molecule `CC(C)[C@H]1CN(C2Cc3ccccc3C2)C[C@@H]1NS(=O)(=O)N(C)C`, the cytotoxicity at 70.5 h stood at 0.396%.
As for `COCCN1CCC(CN(C)c2nc3c(s2)c(C)nn3C)CC1`, the figure is 13.5%; as for `Cc1ccc(C)c(C(NC2CCCC2)c2cccnc2)c1` (centres undefined), 7.4%; as for `COCCOCC(=O)N(Cc1cccc(C)c1)C(C)C`, 3.91%.
The figure for `Cc1ncsc1CCC(=O)NCc1csc(N(C)C)n1` is -1.1%; for `CCn1cncc1CNC(=O)c1ccc(C2CCCN2C(=O)COC)s1` (centres undefined) it is -12%; for `CSCc1noc(CNC2CCCC(C)(C)C2)n1` (centres undefined) it is -5.82%.
The figure for `CCSc1ncc(CN2CCC(O)(CN3CCOCC3)C(C)(C)C2)cn1` (centres undefined) is 38.5%.
On to `Cc1nc2ccccc2n1Cc1cc(C(=O)N(C)C2CCOCC2)no1`, for which the cytotoxicity at 70.5 h was 12.4%.
The figure for `CC(C)CN1CCCn2nc(CNC(=O)NC(C)(C)C)cc2C1` is -6.75%; for `COCCN(Cc1nccs1)c1nc2c(s1)c(C)nn2C` it is -10.8%.
For `Nc1cc(N2CCCC(COc3ccc(F)cc3)C2)ncn1` (centres undefined), the cytotoxicity at 70.5 h was -12.7%.
On to `CN(Cc1nccn1C)C1CCCN(CCCc2ccccc2)C1` (centres undefined), for which the cytotoxicity at 70.5 h is -6.62%.
As to `c1ccc(C(CC2CN(Cc3ncc[nH]3)CCO2)c2ccccc2)cc1` (centres undefined), the cytotoxicity at 70.5 h came out at 0.214%.
As for `Cc1cc(C)n(CCC2CC(=O)Nc3cc(O)c(C)cc32)n1` (centres undefined), the cytotoxicity at 70.5 h was -5.9%.
Take `CCc1cc(N2CCC3(CCCNC3=O)C2)nc(N2CCOCC2)n1` (centres undefined): the cytotoxicity at 70.5 h is -4.73%.
`Cc1nc[nH]c1CN1CCCC(CNC(=O)c2ccc(N)nc2)C1` (centres undefined): the cytotoxicity at 70.5 h is -6.47%.
Consider `CCNC(=O)N1C[C@@H](NC(C)=O)[C@H](c2ccc(C)o2)C1`, for which the cytotoxicity at 70.5 h is -2.82%.
The figure for `Cc1cccc(OCC2CCCN(C(=O)Cn3ccccc3=O)C2)c1` (centres undefined) is 5.85%.
As for `CCCc1cc(C(=O)N2C[C@H](O)[C@@H](N3CCCC3)C2)ccn1`, the figure is 16.4%; as for `CCSC(C)C(=O)N1CCC(c2nn(C)c(=O)n2-c2ccccc2)CC1` (centres undefined), -7.97%.
`CCC(Cn1ccnc1)n1cnc2c(C)csc2c1=O` (centres undefined): the cytotoxicity at 70.5 h was -14.3%.
Turning to `CCn1cnnc1C1CCN(C(=O)c2cccc(OC)c2OC)CC1`, the cytotoxicity at 70.5 h is -7.68%.
As for `CCn1cnnc1C1CCN(C(=O)c2cc(OC)ccc2OC)CC1`, the cytotoxicity at 70.5 h was found to be 1%.
As for `CC(C)c1cc(NC(=O)c2cccnc2)[nH]n1`, the figure is -10.3%; as for `Cc1cnn(CCNCC(=O)NC(C)c2ccc3c(c2)OCCO3)c1` (centres undefined), -3.11%; as for `Cc1nccn1C1CCCN(C(=O)c2ccc3nncn3c2)C1` (centres undefined), -4.02%.
The figure for `CCn1cnnc1C1CCN(C(=O)c2ccoc2C)CC1` is 11.9%.
As for `Cc1nc(CN(C)C2CCCN(c3cccnn3)C2)nc2ccccc12` (centres undefined), the figure is 1.21%.
For the molecule `O=C1NCCN1C1CCN(Cc2nc(-c3ccccc3)no2)CC1`, the cytotoxicity at 70.5 h amounted to 13.9%.
As for `Cc1nc(CN(C)C2CCCN(c3ccccc3)C2)no1` (centres undefined), the cytotoxicity at 70.5 h is -3.56%.
As for `CCCc1noc(CNc2ccc(C(=O)N3CCCC3)cc2C)n1`, the figure is -0.0635%.
The figure for `Cc1cc(C)n(CC2CN(CC3CCCC3)CCO2)n1` (centres undefined) is -3.55%.
The figure for `Cc1cnn(C2CN(Cc3nc(-c4cccnc4)no3)C2)c1` is 1.92%; for `CC(=O)N(C)c1nc(CN2CCCC2Cn2nc(C)cc2C)cs1` (centres undefined) it is -3.11%.
In the case of `CC(=O)Nc1nc(CN2CCCCC2Cn2cncn2)cs1` (centres undefined), the cytotoxicity at 70.5 h was found to be 0.302%.
The figure for `Cc1cnn(C2CN(Cc3nc(-c4ccccc4C)no3)C2)c1` is 11%; for `COCCOc1ccc(Cl)c(C(=O)N2CCN(CCO)CC2)n1` it is -2.95%; for `OCCN1CCN(Cc2coc(-c3cccc(F)c3)n2)CC1` it is -7.98%.
For the molecule `CCn1cc(CN2CCCN(C(=O)CCc3cnn(C)c3)CC2)cn1`, the cytotoxicity at 70.5 h is -11.5%.
As for `O=C(c1ccoc1)N1CCC(Nc2cccnn2)CC1`, the figure is -8.84%; as for `CC(C)c1nn(C)c(N(C)C)c1CNCC(O)c1ccccc1` (centres undefined), -10.1%.
On to `Cn1ncc2c(=O)[nH]c(CN(Cc3ccco3)C3CC3)nc21`, for which the cytotoxicity at 70.5 h is -16.2%.
The figure for `CN(Cc1nc2c(cnn2C)c(=O)[nH]1)Cc1ccco1` is 7.12%; for `Cc1nc2cc(O)nn2c(C)c1CCC(=O)NCCc1ccccc1` it is 10.3%.
For `Cc1nc2cc(O)nn2c(C)c1CCC(=O)NCCCC(C)C`, the cytotoxicity at 70.5 h was -3.79%.
